The results in this text go back to article PMC11882969 (Nature Communications, 2025).

Data set [1] has as its system mice. As to the kind of experiment: Hargreaves radiant heat test. Format: in vivo, mouse.
In data set [2] the test system is mice. As to the kind of experiment: Tail flick, 50 °C water bath. The class given is in vivo, mouse. Conditions: for analgesic response normalised to baseline, WT vs CB1R KO (Figure5d), individual animals: 10 mg/kg.
Data set [3] deals with mice. Put plainly: Conditioned place preference. Format: in vivo, mouse. Conditions: for Individual animal scores (FigS11e): test not printed on the sheet; for conditioned place preference: drug-paired vs vehicle-paired chamber. Here is the method:
Briefly, mice were first habituated to the test apparatus, twice, and their preference for each chamber recorded for 30 min (Pretest). Two conditioning days followed in which mice received the vehicle control or the compound, and 30 min later restricted for 30 min in the preferred or non-preferred chamber, respectively. On day 5 (Test day), mice were allowed to roam freely between the 3 chambers of the apparatus and their preference for each chamber recorded for 30 min. To calculate the CPP score, we subtracted the time spent in each chamber of the box on the Pretest day from that of the Test day (CPP score = Test - Pretest).

Data set [4] deals with T1, human PTH receptor (PTHR) (Homo sapiens, UniProt Q03431).
T1 construct: expressed in transfected cells; host or cells: HEK293 (HEK293SL) cells, transient co-transfection with the Gαs biosensor
T1 sequence (Q03431 27-593): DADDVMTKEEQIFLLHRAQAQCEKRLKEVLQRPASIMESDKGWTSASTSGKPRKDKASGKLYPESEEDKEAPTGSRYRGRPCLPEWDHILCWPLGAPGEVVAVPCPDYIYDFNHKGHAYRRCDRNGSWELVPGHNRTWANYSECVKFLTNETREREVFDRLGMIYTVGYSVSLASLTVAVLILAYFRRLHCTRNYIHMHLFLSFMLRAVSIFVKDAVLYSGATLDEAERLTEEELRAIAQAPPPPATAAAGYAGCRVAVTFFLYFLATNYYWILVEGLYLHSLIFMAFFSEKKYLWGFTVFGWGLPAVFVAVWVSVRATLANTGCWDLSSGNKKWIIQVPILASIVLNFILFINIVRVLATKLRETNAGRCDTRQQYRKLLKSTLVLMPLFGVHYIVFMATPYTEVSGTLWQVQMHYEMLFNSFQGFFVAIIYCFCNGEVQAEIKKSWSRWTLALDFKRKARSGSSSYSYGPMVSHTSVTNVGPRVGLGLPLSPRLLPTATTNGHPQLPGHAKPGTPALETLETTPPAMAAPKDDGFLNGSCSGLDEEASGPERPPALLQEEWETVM
Put plainly: Gs bioSens-All control assay. Conditions: raw signal, log[PTH]. Format: cell-based. The text has this: Experimental data were produced in singleton and curves were fitted using the four-parameter logistic non-linear regression model (GraphPad Prism 9). Data are expressed as uBRET.

Data set [5] relates to mice.
Description: For all behavioral tests, the experimenter was always blind to treatment. Animals were first habituated for 30-60 min in Plexiglas cylinders and then tested 30 min after i.p. or i.t. injection of the compounds. The thermal (Hargreaves, hotplate and tail flick) and ambulatory (rotarod) tests were conducted as described[96]. Briefly, hindpaw thermal sensitivity was measured with a radiant heat source (Hargreaves) or on a hotplate at 52 °C. For the tail flick assay, sensitivity was measured by immersing the tail into a 50 °C water bath. For the ambulatory (rotarod) test, before testing with any compound, mice underwent three trainings on three consecutive days until they reach 300 sec. Each training has three sessions of five min each. Therapeutic window was calculated as the ratio of the minimum dose of side effect phenotype to the minimum dose of analgesic phenotype.
For data set [6], the system named is mice. As to the kind of experiment: Acetone test, cold allodynia after spared nerve injury. Format: in vivo, mouse. Here is the method:
Mice were placed on a wire mesh and thirty min after an i.p. injection of the compounds we applied a drop (50 μL) of acetone on the ventral aspect of the hindpaw, 5 times every 30 sec. We recorded the number of nocifensive behaviors (paw lifts/licks/shakes/bites) over the 5 applications.

Data set [7] relates to mice. Put plainly: Catalepsy test, vertical wire mesh. The class given is in vivo, mouse. Here is the method:
Thirty min after an i.p. injection of the compounds, mice were placed on a vertical wire mesh and the latency to move all four paws was recorded.

The subject of data set [8] is mice. Put plainly: Hot plate, 52 °C. The class given is in vivo, mouse.
Data set [9] concerns mice. Put plainly: Rotarod test. Format: in vivo, mouse.
Data set [10] in a line: Pharmacokinetics: plasma, brain, CSF. Conditions: 0.2 mg/kg i.p., CD-1 mice.
A further data set is described as follows: in vitro. Conditions: mouse, plasma.
Where [11] appears, read: 0.2 mg/kg, individual animals, FigS11b.

Where “and” joins values, the source holds several entries; their conditions need not be identical. Identical values can stand only once. Like-named read-outs stand apart in the source and are kept apart here.

Description for in vitro: The reactions were stopped by adding 240 μL 90% acetonitrile containing internal standard with subsequent plasma proteins sedimentation by centrifuging at 5796 g for 5 min. Supernatants were analyzed by the HPLC system coupled with a tandem mass spectrometer. The percentage of the test compounds remaining after incubation in plasma and their half-lives (T1/2) were calculated.

For the molecule `CCCCCCC(C)(C)c1ccc([C@@H]2C[C@H](O)CC[C@H]2CCCO)c(O)c1` [CP-55940], the “Dose response, individual animals (FigS11a)” value with mice [1] (Dose 0.2 mg/kg, test not printed on the sheet) was 256.9 and 109.7 and 71.66 and 121.4 and 287.7.
Consider `CN1CC[C@]23c4c5ccc(O)c4O[C@H]2[C@@H](O)C=C[C@H]3[C@H]1C5` [morphine, reference compound], for which the “analgesic response normalised to baseline, WT vs CB1R KO (Figure5d), individual animals” value in the data set on mice [2] (CB1R KO mice) is 186.205 and 193.839 and 225.055 and 193.021 and 200.382; in the data set with mice [2] (WT mice) it was 138.803 and 169.174 and 209.668 and 177.834 and 174.541. In addition, in the data set on mice [2] (Morphine 3 mg/kg, individual animals, sheet Figure7b, test not given), the “Response relative to baseline (baseline about 100)” value is 153.4 and 95 and 153.1 and 101.6 and 124.1 and 132.6 and 140.4 and 96.4 and 125 and 194 and 137 and 131 and 126 and 149.7 and 136.2. Moreover, the “Individual animal scores (FigS11e)” value in the data set on mice [3] (20 mg/kg) was 125 and 92 and 189 and -5 and 874 and 419 and 158 and 182. In addition, the conditioned place preference entry with mice [3] is given as “significantly increased their preference”.
Take PTH: the PTH control response in [4] (M -6.22186) is 5622; in data set [4] (M -6.53946), 5653; in data set [4] (M -6.85696) it was 5394; in data set [4] (M -7.17551), 5221; in [4] (M -7.49499) it was 5149; in data set [4] (M -7.80694), 5011. Moreover, the PTH control response in data set [4] (M -8.11922) turned out to be 4856; in data set [4] (M -8.44613), 4893; in [4] (M -8.76448) it was 5167; in data set [4] (M -9.07573), 5440; in data set [4] (M -9.22186), 6053; in data set [4] (M -9.39794) it was 5806. Also, the PTH control response was determined as 6475 in data set [4] (M -9.68787); 7581 in [4] (M -10.1552); 8362 in data set [4] (M -10.6199); 9720 in [4] (M -11.0969); 9963 in [4] (M -11.5529); 10394 in data set [4] (M -12.0177). Further, the PTH control response was 10587 in data set [4] (M -12.4948); 10667 in data set [4] (M -12.9208); 10336 in [4] (M -13.3979); 10932 in data set [4] (M -13.8861); 11358 and 10843 in data set [4] (M -14).
Turning to `CCCCCCC(C)(C)c1ccc([C@@H]2C[C@H](O)CC[C@H]2CCCO)c(O)c1` [CP-55,940, reference compound], the “lowest dose with significantly increased latency, Hargreaves” value with mice [1] (i.p., 30 min after injection) stood at 0.2 mg/kg. Moreover, in the data set on mice [5] (Figure 6e, vs rotarod), the “therapeutic window, Acetone” value turned out to be 1; the “therapeutic window, Hot Plate” value was determined as 0.4; the “therapeutic window, Tail Flick” value came to 0.4. Also, the “therapeutic window, analgesia vs catalepsy” value with mice [5] (Figure 6f) was “no window between analgesia and catalepsy”. In addition, in the data set on mice [5] (Figure 6d, vs open field), the “therapeutic window, Acetone” value worked out at 1; the “therapeutic window, Hot Plate” value was 0.4; the “therapeutic window, Tail Flick” value is 0.4. Further, the “acetone test response after spared nerve injury (Figure5b), individual animals” value in the data set with mice [6] (Dose 0.2 mg/kg) is 36 and 40 and 48 and 76. Also, the “effect on acetone-induced nocifensive behaviors” value in the data set with mice [6] (spared nerve injury, i.p.) is reported as “strongly reduced spared nerve injury-induced cold allodynia”. In addition, in the data set on mice [3] (0.5 mg/kg), the “Individual animal scores (FigS11e)” value was -18 and -21 and -54 and 119 and -213 and 8 and -326 and -238. For the same molecule, in the data set with mice [3], the conditioned place preference result is on record as “may actually induce some aversion”. Further, the “catalepsy (Figure6c), individual animals” value in the data set on mice [7] (0.2 mg/kg dose) is 17 and 15 and 13 and 3 and 5. The “catalepsy (Figure6c), individual animals” value in the data set on mice [7] (0.5 mg/kg dose) is 6.8 and 5 (2×) and 30 and 5.6 and 4 and 2 (2×) and 7 and 8.5. Also, the “catalepsy (Figure6c), individual animals” value with mice [7] (1 mg/kg dose) is 15.3 and 23.3 and 17.7 and 28 and 15.7. Further, the “dose at which catalepsy starts” value in the data set on mice [7] (i.p.) stood at 0.2 mg/kg. In the data set on mice [8] (setting [11]), the Jump was 18 and 0 (2×) and 4 (2×); the Paw lick was 0 (4×) and 10; the Paw shake was 0 (2×) and 6 and 12 and 8; the Paw withdrawal was 18 and 34 and 32 and 36 and 64. In addition, in the data set with mice [8] (Dose 0.2 mg/kg), the “hot plate response normalised to baseline (Figure4b), individual animals” value was 98.1 and 121.1 and 123.4 and 122.6 and 97.5. Also, the “hot plate response normalised to baseline (Figure4b), individual animals” value in the data set with mice [8] (Dose 0.5 mg/kg) was 256.6 and 226.6 and 210.5 and 222.4 and 213.7. The “lowest dose with significantly increased hot plate latency” value in the data set with mice [8] (i.p., 30 min after injection) was found to be 0.5 mg/kg. The “rotarod performance (Figure6b), individual animals” value (from here on “rotarod performance (Figure6b)”) in the data set on mice [9] (Dose 0.1 mg/kg) is 284 and 282 and 285 and 300. Further, the “rotarod performance (Figure6b)” value in the data set with mice [9] (Dose 0.2 mg/kg) was 261 and 257 and 210 and 300 and 91 and 161 and 258 and 208 and 236 and 275. Further, in the data set with mice [9] (Dose 1.0 mg/kg), the “rotarod performance (Figure6b)” value was 200 and 204 and 173 and 236 and 203. Moreover, the “motor impairment at analgesic doses” value in the data set with mice [9] (rotarod and open field) was “caused motor impairment in both the rotarod and open field tests”. Also, in [10], the “brain Cmax” value was 19.2 ng/g and the “brain T1/2” value was determined as 127 min.
`CC(C)[N+](C)(CCOC(=O)C1c2ccccc2Oc2ccccc21)C(C)C` [Propantheline, reference compound]: in “in vitro”, the half-life at 1 µM is 28 min; the share remaining at 20 min, 1 µM came to 75%; the share remaining at 40 min, 1 µM was 50%; the amount remaining at 1 h, 1 µM was determined as 31%. Moreover, the fraction remaining at 2 h, 1 µM in the data set “in vitro” stood at 6%.
